In data set [1] the test system is MCF7 breast adenocarcinoma cell line. The data set can be described thus: Cell viability assay (MTT). In kind it is cell-based, human. The note with it: Table S2, 24 h, mean ± sd, N = 2 independent measurements with six technical replicates each (Figs S6-S8). On the procedure:
(§1) 10% fetal bovine serum and 1% penicillin-streptomycin (Thermo Fisher Scientific, Waltham, MA, USA). The cultures were kept at 37°C in a 5% CO2 atmosphere incubator (Thermo Fisher Scientific, Waltham, MA, USA) and split every two to three days to new culture flasks. Cells no older than 20 passages were used for experiments.
(§2) For splitting, the cell culture media was aspirated, the cells were washed with 0.01 M phosphate buffered saline (PBS, Gibco, Thermo Fisher Scientific, Waltham, MA, USA) and trypsin-EDTA (trypsin - ethylene diamine tetraacetic acid, Fisher scientific, UK) was added to the cell layer to detach them from the flask surface. After incubation for 2 min at 37°C, cells were resuspended with an equal volume of DMEM media and centrifuged at 310 g for 5 min at 4°C. After removal of the supernatant the cells were resuspended in DMEM cell media and split into new cell culture flasks at a 1/3 to 1/5 ratio.
(§3) Determination of the anticancer peptides half effective concentration (EC50) was performed by a 3-(4,5-dimethylthiazol-2-yl)-2,5-diphenyltetrazolium bromide (MTT) assay, as described elsewhere21. Briefly, […] were seeded in each well of a 96-well plate and left to adhere and […]
(§4) sulfoxide (DMSO, Fisher Scientific, UK) at an intermediate concentration of 1 mM. The peptides were then diluted in a 2-fold dilution series starting at 100 μM with DMEM culture media. Cells were incubated with the peptide solutions for 24 h. After this time, the cell media was removed and the cells were incubated for 1 h with a 0.5 mg mL−1 MTT solution to allow enough time for formazan crystal formation (Sigma Aldrich, Steinheim, Germany). The supernatant was removed and 100 μL of DMSO were added into each well to resuspend the formazan crystals.
(§5) After manually shaking the plates to completely dissolve the crystals, the absorbance was measured at 540 nm in a Tecan Infinity M1000 spectrophotometer. The cell viability was determined based on the quantification of the color intensity in each culture well, considering the absorbance obtained by the control media without peptides as a 100% survival. The resultant sigmoidal curves were analyzed with the drc22 R package using a log-logistic model

In data set [2] the test system is A549 lung adenocarcinoma cell line. The data set can be described thus: Cell viability assay (MTT). The format is cell-based, human. The following applies: Table S2; MTT, 24 h; mean ± sd; N = 2 independent measurements with six technical replicates each (Figs S6-S8); read-out: A549 EC50 /µM. The method, then: as §1, §2, §3, §4, §5
Data set [3] has as its system noncancer HDMEC primary cells (human dermal microvascular endothelial cells). The data set can be described thus: Cell viability assay (MTT). In kind it is cell-based. The following applies: Table S2; noncancer primary cells; MTT, 24 h; mean ± sd; N = 2 independent measurements with six technical replicates each (Figs S6-S8). On the procedure: as §1, §2, §3, §4, §5

Another data set has as its system human erythrocytes. The data set can be described thus: Hemolysis assay. In kind it is cell-based. The following applies: 1 h. On the procedure:
Human erythrocytes were freshly ordered at the Blutspende Zürich. Erythrocytes were washed 3 times with a […] phosphate buffered saline (PBS, Gibco, Thermo Fisher Scientific, Waltham, MA, USA) solution centrifuging at 800 g for 10 min or until the supernatant appeared clear to remove the blood plasma. A 5% v/v erythrocytes : PBS solution was prepared for direct use. For HC50 determination, peptides were dissolved in PBS at an intermediate concentration of 1 mM. A dilution series of the peptide from 200 to 6.25 μM was plated in a round-bottomed 96-well plate in triplicates, with a volume of 50 μL per well. PBS buffer and a solution of 0.1% Triton-X-100 (Fisher Chemical, Loughborough, UK) in PBS were employed as negative and positive controls, respectively. 50 μL of the 5% erythrocyte solution were added in each well and the plates were incubated at 37°C for 1 h. After this time, 100 μL PBS were added to each well and plates were centrifuged at 800 g for 10 min. 100 μL of the supernatant were transferred to a flat-bottomed 96-well plate and the absorbance was measured at 540 nm in a Tecan Infinity M1000 spectrophotometer plate reader. The hemolysis percentage was calculated, considering the absorbance values of the Triton and PBS wells as 100% and 0% hemolysis, respectively.
The resultant sigmoidal curves were analyzed with the drc22 R package using a log-logistic model with 3 fixed parameters to obtain the HC50 values. […]
NCI-60 screening procedure […]
Each peptide was tested in a 5-concentration assay, starting at 10^-4 M and diluting 10-fold to the lowest 10^-8 M concentration. The peptides were incubated for 48 h and the cell concentration was assayed by using the sulforhodamine B assay25 and optical density measurements. The growth inhibition (GI50) value24, measures the growth inhibitory power of the drug agent. The GI50 value is the concentration of the test drug for which the condition in Eq. S1 is met, where T is the optical density of the test well after a 48-h exposure to the peptide, T0 the optical density before applying the peptide drug and C the control optical density of a well where no peptide was applied.

The results in this text go back to PMC6677754, “In silico design and optimization of selective membranolytic anticancer peptides” (Scientific Reports, 2019).

Molecules are shown by their SMILES. Peptide text beside a SMILES is read from it.

As to `CC[C@H](C)[C@H](NC(=O)[C@H](CCCCN)NC(=O)CNC(=O)[C@@H](NC(=O)[C@H](CC(C)C)NC(=O)[C@H](Cc1c[nH]cn1)NC(=O)[C@H](Cc1c[nH]c2ccccc12)NC(=O)[C@H](C)NC(=O)[C@H](CCCCN)NC(=O)[C@H](CCCCN)NC(=O)[C@@H](NC(=O)[C@H](Cc1c[nH]c2ccccc12)NC(=O)[C@@H](NC(=O)[C@H](CCCNC(=N)N)NC(=O)[C@@H](NC(=O)[C@H](CCCCN)NC(=O)[C@H](CCCCN)NC(=O)[C@@H](NC(=O)[C@@H](NC(=O)[C@@H](N)CCC(N)=O)[C@@H](C)CC)[C@@H](C)CC)C(C)C)[C@@H](C)O)[C@@H](C)CC)[C@@H](C)CC)C(N)=O` [Off2.2.7] (H-QIIKKVRTWIKKAWHLIGKI-NH2), the EC50 in data set [1] came out at 8 ± 1 µM; in data set [2] it was 12 ± 2 µM; in data set [3], 17 ± 1 µM. Moreover, in the data set with human erythrocytes (red cells of human), the “Eryhtr. HC50 /µM” value is listed as more than 100 µM.
For `CC[C@H](C)[C@H](NC(=O)[C@H](Cc1c[nH]cn1)NC(=O)[C@H](Cc1c[nH]c2ccccc12)NC(=O)[C@H](C)NC(=O)[C@H](CCCNC(=N)N)NC(=O)[C@H](CCCNC(=N)N)NC(=O)[C@H](CC(C)C)NC(=O)[C@H](Cc1c[nH]c2ccccc12)NC(=O)[C@@H](NC(=O)[C@H](CCCNC(=N)N)NC(=O)[C@@H](NC(=O)[C@H](CCCNC(=N)N)NC(=O)[C@H](CCCNC(=N)N)NC(=O)[C@H](CC(C)C)NC(=O)[C@H](Cc1ccc(O)cc1)NC(=O)[C@@H](N)CCC(N)=O)C(C)C)[C@@H](C)O)C(=O)N[C@@H](CC(C)C)C(=O)NCC(=O)N[C@@H](CCCCN)C(=O)N[C@H](C(N)=O)C(C)C` [Off2.2.8] (H-QYLRRVRTWLRRAWHILGKV-NH2) the same measures were 11 ± 0.2 µM, 16.5 ± 0.2 µM, 10.3 ± 0.3 µM and 21 ± 1 µM.
For `CC[C@H](C)[C@H](NC(=O)[C@H](CCCCN)NC(=O)[C@H](CCCCN)NC(=O)[C@H](CC(C)C)NC(=O)[C@H](CC(C)C)NC(=O)[C@@H](N)CCC(N)=O)C(=O)N[C@@H](CCCNC(=N)N)C(=O)N[C@H](C(=O)N[C@@H](Cc1c[nH]c2ccccc12)C(=O)N[C@@H](Cc1ccc(O)cc1)C(=O)N[C@@H](CCCNC(=N)N)C(=O)N[C@@H](CCCCN)C(=O)N[C@@H](C)C(=O)N[C@@H](Cc1c[nH]c2ccccc12)C(=O)N[C@@H](Cc1c[nH]cn1)C(=O)N[C@H](C(=O)N[C@@H](Cc1ccc(O)cc1)C(=O)NCC(=O)N[C@@H](CCCCN)C(=O)N[C@H](C(N)=O)C(C)C)C(C)C)[C@@H](C)O` [Off2.2.9] (H-QLLKKIRTWYRKAWHVYGKV-NH2), the EC50 in data set [1] was 13 ± 1 µM; in data set [2], 28 ± 3 µM; in data set [3], 21 ± 2 µM. Further, the “Eryhtr. HC50 /µM” value in the data set on human erythrocytes (red cells of human) was more than 200 µM.
For `CC[C@H](C)[C@H](NC(=O)[C@@H](N)CCC(N)=O)C(=O)N[C@@H](Cc1ccc(O)cc1)C(=O)N[C@@H](CCCCN)C(=O)N[C@@H](CCCCN)C(=O)N[C@@H](Cc1ccc(O)cc1)C(=O)N[C@@H](CCCNC(=N)N)C(=O)N[C@H](C(=O)N[C@@H](Cc1c[nH]c2ccccc12)C(=O)N[C@@H](Cc1ccc(O)cc1)C(=O)N[C@@H](CCCNC(=N)N)C(=O)N[C@@H](CCCCN)C(=O)N[C@@H](C)C(=O)N[C@@H](Cc1c[nH]c2ccccc12)C(=O)N[C@@H](CCCCN)C(=O)N[C@H](C(=O)N[C@@H](CC(C)C)C(=O)NCC(=O)N[C@@H](CCCCN)C(=O)N[C@H](C(N)=O)C(C)C)C(C)C)[C@@H](C)O` [Off2.2.10] (H-QIYKKYRTWYRKAWKVLGKV-NH2) the same measures were 16.9 ± 0.8 µM, 36 ± 7 µM, 71 ± 12 µM and more than 200 µM.
On to `CC[C@H](C)[C@H](NC(=O)[C@H](CCCCN)NC(=O)[C@H](CCCCN)NC(=O)[C@@H](NC(=O)[C@@H](NC(=O)[C@@H](N)CCC(N)=O)[C@@H](C)CC)[C@@H](C)CC)C(=O)N[C@@H](CCCNC(=N)N)C(=O)N[C@H](C(=O)N[C@@H](Cc1c[nH]c2ccccc12)C(=O)N[C@@H](Cc1ccc(O)cc1)C(=O)N[C@@H](CCCNC(=N)N)C(=O)N[C@@H](CCCCN)C(=O)N[C@@H](C)C(=O)N[C@@H](Cc1c[nH]c2ccccc12)C(=O)N[C@@H](Cc1c[nH]cn1)C(=O)N[C@H](C(=O)N[C@@H](CC(C)C)C(=O)NCC(=O)N[C@@H](CCCCN)C(=O)N[C@H](C(N)=O)C(C)C)C(C)C)[C@@H](C)O` [Off2.2] (H-QIIKKIRTWYRKAWHVLGKV-NH2), for which the figures for the EC50 in data set [1], in data set [2] and in data set [3] were 11.6 ± 0.8 µM, 20 ± 1 µM and 42 ± 7 µM, respectively. In addition, the “Eryhtr. HC50 /µM” value with human erythrocytes (Table S2, 5% v/v erythrocytes in PBS added 1:1, peptide 200 to 6.25 µM, 37°C, absorbance 540 nm, 0.1% Triton-X-100 = 100%, mean ± sd, N = 2 independent, three technical replicates) was more than 200 µM.
For the compound `CC[C@H](C)[C@H](NC(=O)[C@H](CCCCN)NC(=O)CNC(=O)[C@@H](NC(=O)[C@@H](NC(=O)[C@H](Cc1c[nH]cn1)NC(=O)[C@H](Cc1c[nH]c2ccccc12)NC(=O)[C@@H]1CCCN1C(=O)[C@H](CCCCN)NC(=O)[C@H](CCCCN)NC(=O)[C@H](CC(C)C)NC(=O)[C@H](Cc1ccccc1)NC(=O)[C@H](Cc1c[nH]cn1)NC(=O)[C@H](CCCNC(=N)N)NC(=O)[C@H](Cc1ccccc1)NC(=O)[C@H](CCCCN)NC(=O)[C@H](CCCCN)NC(=O)[C@H](Cc1ccc(O)cc1)NC(=O)[C@H](CC(C)C)NC(=O)[C@@H](N)[C@@H](C)O)C(C)C)C(C)C)C(N)=O` [Off2.3] (H-TLYKKFRHFLKKPWHVVGKI-NH2), the EC50 in data set [1] was 65 ± 3 µM; in data set [2] it was more than 100 µM; in data set [3] it was 167 ± 13 µM. Besides, the “Eryhtr. HC50 /µM” value with human erythrocytes (red cells of human) was more than 200 µM.
The corresponding values for `CC[C@H](C)[C@H](NC(=O)[C@H](CC(C)C)NC(=O)[C@H](CCCCN)NC(=O)[C@H](Cc1ccccc1)NC(=O)[C@@H]1CCCN1C(=O)[C@H](CCCCN)NC(=O)[C@H](Cc1c[nH]cn1)NC(=O)[C@H](Cc1ccccc1)NC(=O)[C@H](Cc1c[nH]c2ccccc12)NC(=O)[C@@H](NC(=O)[C@H](CCCCN)NC(=O)[C@H](CC(C)C)NC(=O)[C@H](Cc1c[nH]cn1)NC(=O)[C@H](CCCNC(=N)N)NC(=O)[C@@H](NC(=O)[C@H](Cc1ccc(O)cc1)NC(=O)[C@@H](N)Cc1c[nH]cn1)[C@@H](C)CC)[C@@H](C)O)C(=O)NCC(=O)N[C@@H](CCCCN)C(=O)N[C@H](C(N)=O)C(C)C` [Off2.4] (H-HYIRHLKTWFHKPFKLIGKV-NH2) are more than 100 µM, more than 100 µM, 169 ± 28 µM and more than 200 µM.
Consider `CC[C@H](C)[C@H](NC(=O)[C@@H](N)CCCCN)C(=O)N[C@@H](Cc1ccccc1)C(=O)N[C@@H](CCCCN)C(=O)N[C@@H](CCCCN)C(=O)N[C@@H](Cc1ccccc1)C(=O)N[C@@H](CCCCN)C(=O)N[C@@H](CC(=O)O)C(=O)N[C@@H](Cc1c[nH]c2ccccc12)C(=O)N[C@@H](Cc1ccccc1)C(=O)N[C@@H](CCCCN)C(=O)N[C@@H](CCCCN)C(=O)N[C@@H](C)C(=O)N[C@@H](Cc1ccccc1)C(=O)N[C@@H](Cc1c[nH]cn1)C(=O)N[C@H](C(=O)N[C@@H](CC(C)C)C(=O)NCC(=O)N[C@@H](CCCCN)C(=O)N[C@H](C(N)=O)C(C)C)C(C)C` [Off2.5] (H-KIFKKFKDWFKKAFHVLGKV-NH2), for which the EC50 is 10.4 ± 0.8 µM in data set [1], 14.8 ± 0.7 µM in data set [2] and 22 ± 1 µM in data set [3]. In addition, the “Eryhtr. HC50 /µM” value in the data set on human erythrocytes (red cells of human) is recorded as more than 100 µM.
